From article PMC4578888, “The Validation of Nematode-Specific Acetylcholine-Gated Chloride Channels as Potential Anthelmintic Drug Targets” (PLoS ONE, 2015)

Molecular target: T1, AVR-15 (glutamate-gated chloride channel subunit) (Caenorhabditis elegans, UniProt O17548)
T1 construct: homomeric AVR-15, untagged and with a fluorescent protein tag in the intracellular loop, expressed in Xenopus laevis oocytes
T1 sequence (O17548 21-478): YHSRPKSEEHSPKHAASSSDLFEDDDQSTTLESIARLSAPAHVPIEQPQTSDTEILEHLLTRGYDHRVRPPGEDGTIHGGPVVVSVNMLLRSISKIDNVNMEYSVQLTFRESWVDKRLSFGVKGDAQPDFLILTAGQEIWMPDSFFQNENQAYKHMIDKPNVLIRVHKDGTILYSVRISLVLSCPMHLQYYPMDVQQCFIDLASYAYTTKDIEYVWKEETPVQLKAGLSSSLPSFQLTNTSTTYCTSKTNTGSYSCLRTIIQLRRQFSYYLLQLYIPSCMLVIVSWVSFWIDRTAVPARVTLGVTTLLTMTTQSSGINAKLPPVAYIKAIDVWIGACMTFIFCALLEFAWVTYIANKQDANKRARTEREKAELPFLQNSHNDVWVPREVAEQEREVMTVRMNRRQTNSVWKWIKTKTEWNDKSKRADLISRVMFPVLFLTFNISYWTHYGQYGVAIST
Assay: two-electrode voltage clamp in Xenopus oocytes, dose–response curve
Format: cell-based

`N[C@@H](CCC(=O)O)C(=O)O` [glutamate] was tested, and the “two-electrode voltage clamp in Xenopus oocytes, dose-response curve” value was “Dose–response curve with the normalized maximal response on the y-axis plotted against the glutamate concentration”.
